Experimental data from patent publication US7217827B2, “Halogen-containing aromatic compound” (Nippon Shokubai Co., Ltd., priority 2001, dated 2007).

Test: Solubility to dimethylacetoamide at 25° C., solution then left standing for a night
Conditions: for solubility to dimethylacetoamide: at 25° C.; for precipitation from the dimethylacetoamide solution on standing: solution left standing for a night

SMILES	solubility to dimethylacetoamide [wt. %]	precipitation from the dimethylacetoamide solution on standing
O=C1OC(=O)c2c(F)c(Oc3c(Cl)c(Cl)c(Oc4c(F)c(F)c5c(c4F)C(=O)OC5=O)c(Cl)c3Cl)c(F)c(F)c21 [Example 1, 1,4-bis(3,4-dicarboxytrifluorophenoxy)tetrachlorobenzene dianhydride]	22	precipitations were not found
Nc1c(F)c(N)c(F)c(Cl)c1F [Example III-1, 5-chloro-2,4,6-trifluoro-m-phenylenediamine]	68	precipitations were not found
